Test results from patent US20260041093A1, “Ionic Derivatives Of Aromatic Carboxylic Acid For Use As Plant Stimulants, Method For Stimulating Plants And Use Of These Derivatives For Manufacturing Compositions For Stimulating Plants” (FUNDACJA UNIWERSYTETU IM. ADAMA MICKIEWICZA W POZNANIU, priority 2022, published 2026).
Like-named read-outs stand apart in the source and are kept apart here.

How the values were obtained:
tomato = test: Greenhouse tomato sprayed three times: yield, health-promoting substances, leaf chlorophyll (Example 2); format: in vivo; settings: 80 mg/L, benzothiadiazole salt 30 mg/L, chitosan lactate 50 mg/L
Procedure: Biostimulant properties were evaluated for the following stimulants: […] The evaluation of stimulant properties included the influence of tested substances on tomato yield, content of health-promoting substances in yield and chlorophyll content in tomato leaves. […] The untreated control plants were sprayed with distilled water. During the experiment, total yield weight, commercial and non-commercial yield and average commercial fruit weight, number of fruits per plant and average fruit weight per plant were evaluated. […] Chlorophyll was measured before each treatment and one day after each treatment using Minolta's SPAD-502 chlorophyll meter.

winter rapeseed = settings: for more aboveground dry matter compared to control: last harvest date, fully ripe
From the text: The experiment was established using the long strip method in four repetitions. The dimensions of the plots at establishment were 96 m^2 gross, while the harvestable area was 23.25 m^2 net.
In the experiment, uniform NPK fertilization was applied, using both bulk and liquid fertilizers.
The following facilities were included in the experiment: • 1. control, no stimulant application, standard fungicide protection • 2. stimulant applied at stage 31-32 according to the BBCH development scale, standard fungicide protection • 3. stimulant applied at stage 53-55 according to the BBCH development scale, no fungicide protection

lettuce = settings: Control (watered); double application; 3-chlorosalicylate 100 mg/L, benzothiadiazole salt 50 mg/L
From the text: The purpose of the study was to determine the effect of foliar spraying with test solutions on lettuce (Lactuca sativa L. ‘Zeralda’) plants. The plants were sprayed 7 and 14 days after transplanting to a permanent site. […] After another 7 days, drought stress was induced (plants in the selected combinations were not watered until symptoms of leaf wilting appeared), followed by proper watering of the plants again. Control plants were watered in turn to a constant weight. After 3 days after re-watering, chlorophyll fluorescence was measured (OJIP test, methodology described, among others, in Kalaji H. M., 2011. Impact of abiotic stress factors on chlorophyll fluorescence in plants of selected barley cultivars Hordeum vulgare L. SGGW Publishing House, Warsaw [https://badanieroslin.pl/wp-content/uploads/2018/11/Oddzialywanie-abiotycznych-czynnikow. . . ..pdf]) and the condition of the plants was assessed.
The measurement was carried out after inducing drought stress, followed by re-watering the plants to a constant weight. […] This parameter is lowered by stresses.

[1] = BBCH 32, standard fungicide protection, 80 mg/L, benzothiadiazole salt 25 mg/L
[2] = BBCH 32, stimulant only, 80 mg/L, benzothiadiazole salt 25 mg/L
[3] = BBCH 55, standard fungicide protection, 80 mg/L, benzothiadiazole salt 25 mg/L
[4] = BBCH 55, without fungicide, 80 mg/L, benzothiadiazole salt 25 mg/L
[5] = first sampling date, stimulant at BBCH 31-32, no fungicide yet, 80 mg/L, benzothiadiazole salt 25 mg/L
[6] = second date, regardless of cultivation technology, 80 mg/L, benzothiadiazole salt 25 mg/L

C[N+](C)(C)CCO.O=C([O-])c1cccc2nnsc12
Chlorophyll content (SPAD), a day after treatment #1 (tomato): 63.5 b
Chlorophyll content (SPAD), a day after treatment #2 (tomato): 61.3 b
Chlorophyll content (SPAD), a day after treatment #3 (tomato): 63.2 b
Chlorophyll content (SPAD), Treatment #1 (tomato; before treatment #1): 51.2 a
Chlorophyll content (SPAD), Treatment #2 (tomato; before treatment #2): 51.4 a
Chlorophyll content (SPAD), Treatment #3 (tomato; before treatment #3): 51.1 a
Average fruit weight per plant (tomato; spray 3x): 148.70 b g
Average weight of marketable fruit (tomato; spray 3x): 26.13 b kg/m^2
Commercial yield (tomato; spray 3x): 18.13 b kg/m^2
Number of fruits per plant (tomato; spray 3x): 4.17 b
Total yield (tomato; spray 3x): 18.83 b kg/m^2
Calcium (tomato; tomato fruits): 91.4 a mg/kg
Lycopene (tomato; tomato fruits): 36.5 b mg/kg
Magnesium (tomato; tomato fruits): 106.3 b mg/kg
Vit. C (tomato; tomato fruits): 200.1 c mg/kg
Vit. E (tomato; tomato fruits): 25.9 b mg/kg
°Brix (sugar content of the liquid expressed in degree of Brix) (tomato; tomato fruits): 5.92 b g
increase in calcium uptake (winter rapeseed; [1]): 5%
increase in magnesium uptake (winter rapeseed; [1]): 5%
increase in nitrogen uptake (winter rapeseed; [1]): 5%
increase in phosphorus uptake (winter rapeseed; [1]): 5%
increase in potassium uptake (winter rapeseed; [1]): 6%
increase in calcium uptake (winter rapeseed; [2]): 9%
increase in magnesium uptake (winter rapeseed; [2]): 11%
increase in nitrogen uptake (winter rapeseed; [2]): 8%
increase in phosphorus uptake (winter rapeseed; [2]): 9%
increase in potassium uptake (winter rapeseed; [2]): 7%
higher fat content (winter rapeseed; BBCH 32, with fungicide, 80 mg/L, benzothiadiazole salt 25 mg/L): 6%
higher fat content (winter rapeseed; BBCH 32, without fungicide, 80 mg/L, benzothiadiazole salt 25 mg/L): 8%
increase in calcium uptake (winter rapeseed; [3]): 10%
increase in fat content (winter rapeseed; [3]): 6%
increase in magnesium uptake (winter rapeseed; [3]): 9%
increase in nitrogen uptake (winter rapeseed; [3]): 9%
increase in phosphorus uptake (winter rapeseed; [3]): 11%
increase in potassium uptake (winter rapeseed; [3]): 8%
increase in calcium uptake (winter rapeseed; [4]): 9%
increase in fat content (winter rapeseed; [4]): increase
increase in magnesium uptake (winter rapeseed; [4]): 13%
increase in nitrogen uptake (winter rapeseed; [4]): 12%
increase in phosphorus uptake (winter rapeseed; [4]): 9%
increase in potassium uptake (winter rapeseed; [4]): 8%
seed yields higher compared to control (winter rapeseed; both fungicide and stimulant treatments, 80 mg/L, benzothiadiazole salt 25 mg/L): 12%
chlorophyll content, differences between the tested objects (winter rapeseed; first measurement date): no differences were observed
more biomass (dry weight) compared to control (winter rapeseed; [5]): 29%
more biomass (fresh weight) compared to control (winter rapeseed; [5]): 28%
more aboveground dry matter compared to control (winter rapeseed; only the stimulant, 80 mg/L, benzothiadiazole salt 25 mg/L): 32%
more aboveground dry matter compared to control (winter rapeseed; with fungicide protection, 80 mg/L, benzothiadiazole salt 25 mg/L): 38%
more dry weight compared to control, on average (winter rapeseed; [6]): 26%
more fresh weight compared to control, on average (winter rapeseed; [6]): 24%
weight of one thousand seeds higher compared to control (winter rapeseed; tested combinations, 80 mg/L, benzothiadiazole salt 25 mg/L): 12%
more chlorophyll in the leaves (SPAD) compared to control (winter rapeseed; with a fungicide, printed 'first date' (of second and third measurement dates), 80 mg/L, benzothiadiazole salt 25 mg/L): 6%
more chlorophyll in the leaves (SPAD) compared to control (winter rapeseed; with a fungicide, printed 'second date', 80 mg/L, benzothiadiazole salt 25 mg/L): 8%
more chlorophyll in the leaves (SPAD) compared to control (winter rapeseed; without a fungicide, printed 'first date', 80 mg/L, benzothiadiazole salt 25 mg/L): 8%
more chlorophyll in the leaves (SPAD) compared to control (winter rapeseed; without a fungicide, printed 'second date', 80 mg/L, benzothiadiazole salt 25 mg/L): 12%
seed yields higher compared to control (winter rapeseed; without fungicide protection, stimulant at BBCH 31-32, 80 mg/L, benzothiadiazole salt 25 mg/L): 9%
ABS/RC (lettuce): 1.46 b
DIo/RC (lettuce): 0.28 b
ETo/RC (lettuce): 0.93 ab
F0 (lettuce): 7100 b
FM (lettuce): 45265 b
FM/F0 (lettuce): 6.52 ab
Fv (lettuce): 38164 b
Fv/F0 (lettuce): 5.52 abc
